Read-outs that look alike come from different tables or passages of the source.
What was measured:
dopamine D1-receptors = molecular target: T1, dopamine D1-receptors (Rattus norvegicus, UniProt P18901); assay: affinity for dopamine D1-receptors by displacement experiments with [3H]-Sch 23390; type: binding
T1 construct: The striata were dissected out, weighed and homogenised in 25 volumes of tris buffer; from tissue; host or cells: rat striatum membranes (Chbb:Thom strain), prepared as for the D2 assay
Procedure: (§1) Male rats (of the Chbb:Thom strain weighing about 200 g) were killed by a blow to the back of the neck. The brains were removed and dissected on ice. The striata were dissected out, weighed and homogenised in 25 volumes of tris buffer (50 mM tris-HCl, 1 mM EDTA, 5 mM MgCl2 and 1 mM ascorbic acid) for 30 seconds in an Ultra-Turrax at maximum speed, followed by 10 cycles in a Potter-Elvehjem at 1400 rpm. The pellet obtained after centrifuging at 50,000×g at 4° C. for 15 minutes was again taken up in 25 ml of tris buffer and centrifuged under the above conditions. The supernatant was discarded and the pellet obtained was incubated in 25 ml of tris buffer at 37° C. for 30 minutes and then centrifuged again at 50,000×g at 4° C. for 15 minutes. Finally, the pellet obtained was mixed with tris buffer to obtain a homogenate dilution of 1:500 (based on the weight of the striata).
(§2) Displacement curves were obtained from the data using the TOPFIT programming package (G. Heinzel in "Pharmacokinetics During Drug Development: Data Analysis and Evaluation Techniques", G. Bozler and J. M. van Rossum Eds., G. Fischer Verlag, Stuttgart 1982, 207).
7. Determining the affinity for dopamine D1-receptors by displacement experiments with [^3 H1-Sch 23390
The membrane preparation and data analysis were carried out as described for determining the affinity for dopamine D2 - receptors.
1 ml aliquots of the membrane preparation were incubated for 1 hour at ambient temperature with 1 ml of a solution of 0.25 nM [^3 H]-Sch 23390 (2.44 TBq/mmol, Messrs. DuPont NEN) and with increasing concentrations of the test substance (10^-11 to 10^-4 M). Incubation was ended by the addition of 5 ml of ice cold tris buffer and filtration through Whatman GF/B filters. The filters were washed twice, each time with 5 ml of ice cold buffer. The radioactivity of the filters was determined by liquid scintillation measurement in Instagel(R) (Messrs. Canberra Packard).
The non-specific binding was determined in the presence of 10^-6 M (-)-butaclamol (Research Biochemicals Inc.).

alpha-2 receptors = molecular target: T2, alpha-2 receptors (Rattus norvegicus, UniProt P22909); assay: affinity for alpha-2 receptors by displacement experiments with [3H]-clonidine (rat cortex membranes); type: binding; conditions: read-out: α2-IC50
T2 sequence (P22909 1-465): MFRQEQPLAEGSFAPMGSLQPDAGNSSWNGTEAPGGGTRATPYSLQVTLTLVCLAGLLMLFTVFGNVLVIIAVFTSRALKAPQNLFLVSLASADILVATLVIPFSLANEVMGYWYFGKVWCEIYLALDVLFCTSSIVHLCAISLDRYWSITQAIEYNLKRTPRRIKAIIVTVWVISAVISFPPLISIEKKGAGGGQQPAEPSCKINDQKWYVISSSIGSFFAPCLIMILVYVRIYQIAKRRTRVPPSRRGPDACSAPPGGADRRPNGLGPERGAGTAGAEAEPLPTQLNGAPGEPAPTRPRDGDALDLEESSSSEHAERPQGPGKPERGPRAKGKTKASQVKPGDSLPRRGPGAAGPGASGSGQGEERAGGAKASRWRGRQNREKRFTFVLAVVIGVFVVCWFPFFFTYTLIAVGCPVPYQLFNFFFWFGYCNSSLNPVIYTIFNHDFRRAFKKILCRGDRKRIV
Procedure: Determination of the affinity for alpha-2 receptors by displacement experiments with [^3 H] clonidine (Modified Method of B. Jarrott, W. J. Louis and R. J. Summers, Biochem. Pharmacol. 27, 141 (1979))
A male rat (Chbb:Thom strain weighing about 200 g) was killed by a blow to the back of the neck. The brain was removed and the cortex dissected out, weighed and homogenised in 25 volumes of tris buffer (50 mM tris- HCl, pH 7.50) for 30 seconds in an Ultra-Turrax at maximum speed, followed by 10° Cycles in a Potter- Elvehjem at 1400 rpm. The homogenised material was combined with tris buffer to obtain a homogenate dilution of 1:50 (based on the weight of the cortex).
1 ml aliquots of the membrane preparation were incubated for three hours at ambient temperature with 1 ml of a solution of 1 nM of [^3 H]-clonidine (2.2 TBq/mmol, Messrs. DuPont NEN) and with increasing concentrations of the test substance (10^-11 to 10^-4 M). Incubation was ended by the addition of 5 ml of ice-cold tris buffer and filtration through Whatman GF/B filters. The filters were washed twice, each time with 5 ml of ice cold buffer. The radioactivity of the filters was determined by liquid scintillation measurement in Instagel(R) (Messrs. Canberra Packard). The non-specific binding was determined in the presence of 10^-5 M of oxymetazoline (Sigma Chemical Co.).

dopamine D2-receptors = dopamine D2-receptors (Rattus norvegicus, UniProt P61169); assay: affinity for dopamine D2-receptors by displacement experiments with [3H]-spiperone (rat striatum membranes); type: binding; conditions: for Ki: [3H]-spiperone, high-affinity form of the dopamine receptor; for α2-IC50 / D2-Ki: relative affinity for dopamine-D2 receptors compared with α2-adrenoceptors, the higher, the higher the D2/α2 selectivity
Procedure: 1Determining the affinity for dopamine D2-receptors by displacement experiments with [^3 H]-spiperone (Modified Method of W. Billard et al., Life Sci. 35, 1885 (1984) and D. J. de Vries and P. M. Beart, Eur. J. Pharmacol. 109, 417 (1985))
as §1
1 ml aliquots of the membrane preparation were incubated with 1 ml of a solution of 0.25 nM [^3 H]-spiperone ([…], Messrs. DuPont NEN) and at increasing concentrations of the test substance (10^-11 to 10^-4 M) at ambient temperature for one hour. Incubation was ended by the addition of 5 ml of ice cold tris buffer and filtration using Whatman GF/B filters. The filters were washed twice, each time with 5 ml of ice cold buffer. The radioactivity of the filters was determined by liquid scintillation measurement in Instagel^(R) (Messrs. Canberra Packard). Non-specific binding was determined in the presence of 10^-5 M haloperidol (Sigma Chemical Co.).
as §2

[1] = molecular target: T3, serotonin-1A(5-HT1A) receptors (Rattus norvegicus, UniProt P19327); assay: affinity for serotonin-1A (5-HT1A) receptors by displacement experiments with [3H]-8-OH-DPAT (rat frontal cortex); type: binding
T3 construct: The frontal cortex was dissected out; from tissue; host or cells: rat frontal cortex homogenate (Chbb:Thom strain)
T3 sequence (P19327 1-422): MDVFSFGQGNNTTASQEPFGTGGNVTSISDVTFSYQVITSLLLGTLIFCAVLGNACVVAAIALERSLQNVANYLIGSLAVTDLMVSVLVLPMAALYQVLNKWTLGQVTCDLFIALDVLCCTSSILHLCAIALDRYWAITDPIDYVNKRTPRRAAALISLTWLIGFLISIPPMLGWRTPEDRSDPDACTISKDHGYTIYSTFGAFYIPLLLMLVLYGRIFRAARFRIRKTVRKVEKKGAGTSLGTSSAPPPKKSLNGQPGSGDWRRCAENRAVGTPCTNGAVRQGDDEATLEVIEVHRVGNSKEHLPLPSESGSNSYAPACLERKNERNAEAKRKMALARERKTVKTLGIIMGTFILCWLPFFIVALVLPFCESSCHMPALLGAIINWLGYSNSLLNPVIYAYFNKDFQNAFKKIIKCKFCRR
Procedure: 3. […] (Method of S. J. Peroutka, J. Neurochem. 47, 529 (1986), modified according to H. Gozlan et al., J. Receptor Research 7. 195 (1987))
A male rat (Chbb:Thom strain weighing about 200 g) was decapitated. The brain was removed and placed in ice-cold buffer (50 mmol/1 tris-HCl plus hydrochloric acid ad pH =7.4 at ambient temperature). The frontal cortex was dissected out; its moist weight was determined. It was homogenised in 40 times its volume of buffer (Polytron, position 6, 10 seconds), then centrifuged for 20 minutes at 45,000×g in the refrigerated centrifuge. The pellet was washed in 100 times its volume of buffer and centrifuged again as described above. The resulting pellet was resuspended in 40 times its volume of buffer and pre-incubated for 10 minutes at 37° C. Sixty times the volume of buffer were added and centrifuging was carried out as above. The resulting pellet was washed with 100 times the volume of buffer and centrifuged as above. The pellet was resuspended in buffer (0.8 ml/10 mg) and briefly homogenised in the Polytron. This homogenised tissue was cooled in ice until ready for incubation.
Incubation was stopped by rapid filtering through Whatman GF/B filters; rinsing was carried out twice, each time with 5 ml of ice cold buffer (Filter Prep, Messrs. Ismatec). The radioactivity of the filters was determined by liquid scintillation measurement.
(§3) Specific binding is obtained from total binding minus non-specific binding.

[2] = molecular target: T4, serotonin-2(5-HT2)-receptors (Rattus norvegicus, UniProt P14842); assay: affinity for serotonin-2 (5-HT2) receptors by displacement experiments with [3H]-spiperone (rat frontal cortex); type: binding
T4 construct: The frontal cortex was dissected out and placed in ice cold 0.32 M saccharose solution; from tissue; host or cells: rat frontal cortex homogenate (Chbb:Thom strain)
Procedure: as §3
A male rat (Chbb:Thom strain, about 200 g) was decapitated. The brain was removed. The frontal cortex was dissected out and placed in ice cold 0.32 M saccharose solution; its moist weight was determined. It was homogenised in 10 times the volume (0.32 M) of saccharose solution for 1 minute at 800 rpm in a Potter S (made by Braun of Melsungen). The homogenised material was centrifuged for 10 minutes at 1000×g (=3,000 rpm with a rotor 8×38 ml) in a refrigerated centrifuge. The supernatant was decanted off and homogenised (Polytron, position 5, 1 minute); the sediment was discarded. 5 ml (=0.5 g moist weight) of the tissue suspension thus obtained were made up to 40 ml with buffer (50 mm tris-HCl; pH=7.7 at ambient temperature).
0.8 ml of the buffered homogenised tissue (=10 mg moist weight) were incubated with 0.1 ml of a solution of [^3 H]-spiperone (about 0.2 nmol/1 final concentration) and with 0.1 ml of a solution of the test substance (increasing concentration) for 15 minutes at 37° C. (triple measurement). Incubation was stopped by rapid filtering through a Whatman GF/B filter; rinsing was carried out 3 times, each time with 5 ml of ice cold buffer within a maximum of 10 seconds (Filter Prep Messrs. Ismatec). The radioactivity of the filters was determined by liquid scintillation measurement.
The specific binding is obtained from the total binding minus the non-specific binding. The averages of the triple measurements are entered in a system of coordinates as in 1.3. The IC50 value is the concentration which inhibits the specific binding of [^3 H]-spiperone by 50%.

[3] = system: hypersensitive dopamine receptor; assay: motility triggering in the mouse treated 24 hours earlier with reserpine; type: in vivo; conditions: Mus musculus, sc; reserpine-treated mice, s.c.; read-out: DLi50 (dosage resulting in 50 running pulses every 5 minutes)
Procedure: This test determines predominantly agonistic effects on the hypersensitive dopamine receptor.
Male mice are treated 24 hours before the experiment with 5 mg/kg i.p. reserpine. The animals are kept at 25°-30° C. and treated three times with 2 ml of a 5% glucose solution in tyrode s.c. (the first time when the reserpine is given, the second time in the evening of the pre-treatment day and the third time on the morning of the test day).
[…] (The injection volume is usually 0.1 ml/10 g of body weight). 30 minutes later the groups of animals are placed in the observation cages (measuring 42 x 24 x 8 cm) and fitted with an infrared lightbeam in order to measure their activity. The value measured is the frequency with which a group of 6 mice pass through the infra-red beam within 5 minutes ("running pulses/5 minutes"; mean at n=3; mean±s.e.m. at n=6).
3 to 6 groups are tested for each substance.

[4] = [3H]-8-OH-DPAT, rat frontal cortex, read-out: 5-HT1A-Ki

T4 sequence (P14842 whole entry): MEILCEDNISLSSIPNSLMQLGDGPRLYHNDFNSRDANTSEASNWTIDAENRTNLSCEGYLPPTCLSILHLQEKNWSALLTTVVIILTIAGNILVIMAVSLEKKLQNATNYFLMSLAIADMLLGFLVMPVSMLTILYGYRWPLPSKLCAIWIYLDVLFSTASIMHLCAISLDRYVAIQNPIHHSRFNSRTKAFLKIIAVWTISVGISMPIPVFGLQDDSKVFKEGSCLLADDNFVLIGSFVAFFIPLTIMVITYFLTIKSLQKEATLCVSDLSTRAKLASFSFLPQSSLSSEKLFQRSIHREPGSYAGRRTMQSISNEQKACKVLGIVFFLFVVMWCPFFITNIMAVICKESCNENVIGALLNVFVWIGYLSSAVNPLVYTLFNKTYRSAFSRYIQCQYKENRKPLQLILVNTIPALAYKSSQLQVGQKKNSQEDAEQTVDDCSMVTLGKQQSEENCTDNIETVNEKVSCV
T1 sequence (P18901 whole entry): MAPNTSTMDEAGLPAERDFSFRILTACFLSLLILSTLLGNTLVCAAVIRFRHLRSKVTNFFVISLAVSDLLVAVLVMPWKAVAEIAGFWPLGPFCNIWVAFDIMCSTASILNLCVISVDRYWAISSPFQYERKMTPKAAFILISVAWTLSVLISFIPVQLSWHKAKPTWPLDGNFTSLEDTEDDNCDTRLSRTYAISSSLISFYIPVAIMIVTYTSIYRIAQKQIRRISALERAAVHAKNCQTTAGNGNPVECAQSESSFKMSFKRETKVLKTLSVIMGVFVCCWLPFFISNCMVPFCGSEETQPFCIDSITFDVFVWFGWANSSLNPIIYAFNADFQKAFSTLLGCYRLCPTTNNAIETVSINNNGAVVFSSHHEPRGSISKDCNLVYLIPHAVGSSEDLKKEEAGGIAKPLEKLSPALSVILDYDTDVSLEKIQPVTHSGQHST
dopamine D2-receptors, sequence (P61169 whole entry): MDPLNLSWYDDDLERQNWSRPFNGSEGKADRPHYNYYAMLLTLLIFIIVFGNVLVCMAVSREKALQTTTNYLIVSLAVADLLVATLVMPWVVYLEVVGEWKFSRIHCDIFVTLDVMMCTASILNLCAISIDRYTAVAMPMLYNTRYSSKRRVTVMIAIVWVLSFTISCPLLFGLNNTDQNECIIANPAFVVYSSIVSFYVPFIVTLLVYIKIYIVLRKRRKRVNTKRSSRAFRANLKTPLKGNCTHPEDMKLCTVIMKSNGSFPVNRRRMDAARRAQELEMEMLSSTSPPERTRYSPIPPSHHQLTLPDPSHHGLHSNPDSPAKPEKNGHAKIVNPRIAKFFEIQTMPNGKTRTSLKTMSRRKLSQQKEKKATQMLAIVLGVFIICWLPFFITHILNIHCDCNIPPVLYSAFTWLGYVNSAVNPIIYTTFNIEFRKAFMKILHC

| Structure (SMILES) | IC50 (alpha-2 receptors) | Ki (dopamine D2-receptors) | α2-IC50 / D2-Ki (dopamine D2-receptors) | Ki [1, 4] | Ki [2] | other results |
| --- | --- | --- | --- | --- | --- | --- |
| Nc1nc2c(s1)CCN(CCc1ccccc1)CC2 [Compound C, 2amino-6-(2phenylethyl)-4,5,7,8-tetrahydro-6H-thiazolo[5,4d]azepine, reference compound] | 5100 nM | 410 nM | 12.4 | – | – | Ki (dopamine D1-receptors): 11000 nM |
| Nc1nc2c(s1)CCN(CC=Cc1ccccc1)CC2 [Example 1, 2-Amino-6-cinnamyl-4,5,7,8-tetrahydro-6H-thiazolo-[5,4-d]azepine] | – | – | – | 4340 nM | 356 nM | – |
| Nc1nc2c(s1)CCN(CC1=Cc3ccccc3CC1)CC2 [Example 1b, 2-Amino-6-(1,2-dihydronaphthalen-3-yl-methyl)-4,5,7,8-tetrahydro-6H-thiazolo[5,4-d]azepine] | – | – | – | – | – | Ki (dopamine D1-receptors): 800 nM |
| Nc1nc2c(s1)CCN(CC=Cc1ccsc1)CC2 [Example 4a, 2-Amino-6-(3-(3-thienyl)allyl)-4,5,7,8-tetrahydro-6H-thiazolo[5,4-d]azepin] | – | – | – | – | – | ED (50 running pulses/5 min) [3]: 1.85 mg/kg |
| Nc1nc2c(s1)CCN(CC=Cc1ccccc1OCc1ccccc1)CC2 [Example 4x, 2-Amino-6-(3-(2-benzyloxy-phenyl)allyl)-4,5,7,8-tetrahydro-6H-thiazolo[5,4-d]azepine] | – | – | – | – | – | Ki (dopamine D1-receptors): 400 nM |
| Nc1nc2c(s1)CCN(CC=Cc1ccco1)CC2 [Example 8, 2-Amino-6-(3-(2-furyl)allyl)-4,5,7,8-tetrahydro-6H-thiazolo[5,4-d]azepine] | – | – | – | – | – | ED (50 running pulses/5 min) [3]: 0.34 mg/kg |
| CCCN(CCC)C1CCc2cccc(O)c2C1 (centres unmarked) [Example 8-OH-DPAT, 8-OH-DPAT, reference compound] | – | – | – | – | 2880 nM | – |
| Nc1nc2c(s1)CCN(CCC=Cc1ccccc1)CC2 [Example 8k, 2-Amino-6-(4-phenyl-3-buten-1-yl)-4,5,7,8-tetrahydro-6H-thiazolo[5,4-d]azepine] | – | – | – | – | – | Ki (dopamine D1-receptors): 510 nM |
| Nc1nc2c(s1)CCN(CC1CC1c1ccccc1)CC2 (centres unmarked) [Example 17, 2-Amino-6-(2-phenyl-1-cyclopropyl-methyl)-4,5,7,8-tetrahydro-6H-thiazolo[5,4-d]azepine] | – | – | – | 1060 nM | 339 nM | – |
| O=C(c1ccc(F)cc1)C1CCN(CCn2c(=O)[nH]c3ccccc3c2=O)CC1 [Ketanserine, reference compound] | – | – | – | – | – | Ki [1]: 2830 nM |

Continued, in another order:

| IC50 (alpha-2 receptors) | Ki (dopamine D2-receptors) | α2-IC50 / D2-Ki (dopamine D2-receptors) | Ki [1, 4] | Ki [2] | Structure (SMILES) | other results |
| --- | --- | --- | --- | --- | --- | --- |
| 890 nM | 10 nM | 89 | 14200 nM | 1800 nM | Nc1nc2c(s1)CCN(CC#Cc1ccccc1)CC2 [Example 4d, 2-Amino-6-(3-phenyl-2-propyn-1-yl)-4,5,7,8-tetrahydro-6H-thiazolo[5,4-d]azepine] | – |
| 2200 nM | 6.9 nM | 318 | 14000 nM | 350 nM | Nc1nc2c(s1)CCN(CC=Cc1ccc3ccccc3c1)CC2 [Example 4u, 2-Amino-6-(3-(2-naphthyl)allyl)-4,5,7,8-tetrahydro-6H-thiazolo[5,4-d]azepine] | – |
| 2200 nM | 3 nM | 733 | 36300 nM | 1030 nM | Nc1nc2c(s1)CCN(CC=Cc1ccc(-c3ccccc3)cc1)CC2 [Example 4w, 2-Amino-6-(3-(4-biphenyl)allyl)-4,5,7,8-tetrahydro-6H-thiazolo[5,4-d]azepine] | – |
| 2000 nM | 4.4 nM | 450 | 53000 nM | 860 nM | Nc1nc2c(s1)CCN(C/C=C\c1ccccc1)CC2 [Example 12b, (Z)-2-Amino-6-(3-phenyl™2-propen-I-yl)-4,5,7,8-tetrahydro-6H-thiazolo[5,4-d]azepine] | – |
